Bounds are passed on as bounds.

Drawing on a melting point compilation (Tetko et al.; mined from patent text by program, amines drawn as free bases though some values may be those of a salt), this text covers melting point for 90 compounds.

For `Cn1nc(CBr)cc1C(=O)NCCc1ccccc1`, the melting point was 112 to 113 °C.

Compound `O=c1c2c(CBr)c(-c3ccc([N+](=O)[O-])cc3)sc2n(Cc2c(F)cccc2F)c(=O)n1-c1ccccc1` gave a melting point of 228 to 229 °C.

With `COc1cc(N(CC(C)C)CC(C)C)ccc1CN1C(=O)C(C)(c2ccccc2Cl)c2cc(Cl)ccc21` (stereo not given), the melting point came to 153 °C.

`NC(=O)C1CCN(CCOc2ccccc2CCc2ccccc2)CC1` returned a melting point of 60 to 63 °C.

In turn, `Nc1ncnc2[nH]c(Br)c(-c3ccc(Oc4ccccc4)cc3)c12` yielded a melting point of 282 to 283 °C.

`O=S1(=O)NCc2cccc(Cl)c21` registered a melting point of 159 to 161 °C.

Consider `CCN(CC)C(=O)NC1C=C2c3cccc4[nH]c(Br)c(c34)CC2N(C)C1` (stereo not given), for which the melting point lay in the range of 204 to 208 °C.

Take `O=S1(=O)c2cccc3cccc(c23)N1CCCN1CCN(c2nsc3ccccc23)CC1`: the melting point fell in the range of 172 to 173 °C.

`CN(C)c1ccc(C=O)c(OCC#N)c1` gave a melting point of 124 to 125 °C.

Compound `CSc1nccc(-c2c[nH]c(=O)n2-c2ccc(F)cc2)n1` showed a melting point of 260 to 261 °C.

With `COc1cc(N2CCCCC2)ccc1C(=O)c1ccccc1C(=O)O`, the melting point is 199 to 201 °C.

With `CC(=O)[C@H]1CC[C@H](c2ccc(Cl)cc2)CC1`, the melting point is 74.6 °C.

Take `O=C(Cc1ccccc1C(=O)O)Nc1cccc(/C=C/c2nc(C3CCCCC3)cs2)c1`: the melting point was in the range of 210 to 211 °C.

`N#Cc1cc(=O)n(-c2c(Cl)cc(C(F)(F)F)cc2Cl)[nH]1` displayed a melting point of 198 to 201 °C.

As to `COc1ccc2c(c1)c(OC(C)C)c(C(N)=O)n2-c1ccccc1`, the melting point lay in the range of 152 to 154 °C.

Consider `Cc1[nH]c(-c2ccccc2)c2c1C(c1ccccc1)=NCC(=O)N2`, for which the melting point lay in the range of 310 to 312 °C.

For `COc1ccc(F)c(-n2c(=O)[nH]c3c(C(N)=O)nc(-c4cccc(O)c4)nc32)c1`, the melting point was > 260 °C.

In the case of `CCCN(CCC)[C@@H]1CCc2cc(CNC(=O)c3ccc(Cl)cc3)ccc2C1`, the melting point was in the range of 141 to 142 °C.

With `COc1ccc(OC)c2c1CCC(OC(C)=O)(C(C)=O)C2` (stereo not given), the melting point is 120 to 122 °C.

Compound `CCC(=O)Nc1c(C#N)cnn1-c1c(Cl)cc(SC(F)(F)F)cc1Cl` gave a melting point of 153 to 156 °C.

The compound `CN1C=NN(c2cccc(N)c2)N1` registered a melting point of 93 to 95 °C.

`COc1ccc(-n2nc(C(=O)c3ccccc3)cc2-c2ccc(C)cc2)cc1`: the melting point fell in the range of 138 to 139 °C.

Compound `Nc1ccc2c(c1)NC(=O)C2` yielded a melting point of 194 °C.

In the case of `CCCCOc1ccc2c(c1)CCC(C(=O)O)=C2`, the melting point lay in the range of 148 to 150 °C.

Turning to `COc1cc(N(C)C)ccc1Nc1nc(Nc2ccc3c(c2)C(C)(C)CCC(=O)N3C)ncc1Cl`, the melting point lay within 244 to 263 °C.

In turn, `CCc1cc2c(=O)n3cc(C(=O)O)ccc3nc2s1` had a melting point of 255 to 257 °C.

Take `N#CSCC1CC(=O)N(c2ccc(F)cc2)C1=O` (stereo not given): the melting point was 88 °C.

On to `CCCCCN(C[C@H]1CC[C@H](CN(CCCCC)C(=O)Nc2ccc(N(C)C)cc2)CC1)C(=O)Nc1ccc(N(C)C)cc1`, for which the melting point fell in the range of 205 to 208 °C.

The compound `CCCCCc1ccc(-c2ccc(-c3ccc(CC)cc3)cc2F)s1` gave a melting point of 44 °C.

As for `CCCCCCC(=O)Nc1c(Sc2cc(C)cc(C)c2)c(C)c[nH]c1=O`, the melting point was in the range of 212 to 213 °C.

In the case of `COc1cc2ccccc2cc1N(C)C(=O)N1CCN(c2cc(Cl)cc(Cl)c2)CC1`, the melting point lay in the range of 165 to 167 °C.

`COC(=O)Cc1c(C(=O)OC)ccn1CCBr` displayed a melting point of 129 to 130 °C.

Compound `CCCc1c(OCCCCCCc2ccc(OCCCC(=O)O)cc2/C=C/C(=O)O)ccc2c1OCCC2=O` had a melting point of 140 to 143 °C.

Compound `O=C1NC(=O)C(Cc2ccc3c(c2)CN(c2ccccn2)CCO3)S1` (stereo not given) came in with a melting point of 180 to 181 °C.

`CCOC(=O)c1cc(-c2cc(OC)cc(OC)c2)ns1` displayed a melting point of 101 to 103 °C.

For `CCOC(=O)Nc1cscc1C(=O)OC`, the melting point came to 52 °C.

In the case of `CCC(CC)(CC(=O)Nc1cccc(OCc2ccc3ccc(OC)cc3n2)c1)C(=O)O`, the melting point lay in the range of 96 to 97 °C.

On to `O=C(O)c1cc(Cl)cc(Cl)c1OC1CCOC1=O` (stereo not given), for which the melting point was in the range of 117 to 120 °C.

Take `CC(CC#N)C(C#N)(c1cccc(C(F)(F)F)c1)N1CCOCC1` (stereo not given): the melting point is 115 to 118 °C.

On to `CCOC(=O)N1CCc2nc(-c3ccncc3)cc(=O)n2CC1`, for which the melting point is 191 to 193 °C.

In the case of `Cc1cc(N2N=CCNC2=O)cc(Cl)c1Cc1ccc(Cl)cc1`, the melting point was 209 to 210 °C.

The compound `C=C(C)OC(=O)N1c2cc(Cl)ccc2NC(=S)[C@@H]1C` showed a melting point of 148 to 150 °C.

Consider `CCCCC(=O)C(=C1NCCCS1)[N+](=O)[O-]`, for which the melting point was 61.5 to 64 °C.

`O=C(CCCCc1ncc[nH]1)NNC(=O)N1Cc2ccccc2Oc2ccc(Cl)cc21` yielded a melting point of 164 to 166 °C.

For `CCn1ncnc1COc1nc2c(cnn2-c2ccccc2)c2ccccc12`, the melting point lay within 147 to 148 °C.

In turn, `Cc1ncoc1-c1nc(-c2c(F)cccc2F)nn1C` displayed a melting point of 113 to 115 °C.

On to `COC(=O)CC(=O)COc1cc(O)c2c(c1)OC(c1ccc(OC)c(O)c1)CC2=O` (stereo not given), for which the melting point lay within 114 to 118 °C.

Compound `CC(CN(C)C)N1c2ccccc2Sc2ccc(C(=O)NCc3ccccc3F)cc21` (racemic) had a melting point of 130 °C.

Compound `CCN(CC)c1ccc([N+](=O)[O-])cc1C#N` registered a melting point of 83 to 85 °C.

In turn, `CNC(=O)c1ccc(-c2ccc3oc(C4CCN(C(=O)OC(C)C)CC4)nc3c2)cn1` had a melting point of 158 to 161 °C.

`CC(=O)OCc1c(Br)cccc1N1Cc2cc(N(C)C)ccc2C1=O`: the melting point was 93 to 95 °C.

On to `CC(=O)OC(COc1ccc(/C=C/C(=O)O)c(Oc2ncc(C(F)(F)F)cc2Cl)c1)COC(C)C` (stereo not given), for which the melting point lay within 134 to 135 °C.

Compound `CCC(C)CNC(=S)NS(=O)(=O)c1sc(Cl)cc1N` (stereo not given) showed a melting point of 116 to 118 °C.

`COc1cc2c(c3c1OC(C)(C)C3)C(c1ccc(=O)n(-c3cc(C)ccn3)c1)=NC(C)(C)C2` came in with a melting point of 161 to 162 °C.

On to `Nc1sc(CC(C(=O)O)C(=O)O)cc1C(=O)c1ccccc1Cl`, for which the melting point lay in the range of 150 to 160 °C.

On to `CC1CC2C3CCC4=CC(=O)C=CC4(C)C3=CCC2(C)C1C(=O)CN1CCN(c2cc(N3CCCC3)nc(NC34CC5CC(CC(C5)C3)C4)n2)CC1` (stereo not given), for which the melting point was in the range of 155 to 172 °C.

For the compound `NC(=O)N1C(=O)C(C(=O)c2ccc(Cl)s2)c2cc(Cl)ccc21` (stereo not given), the melting point lay within 220 to 222 °C.

Take `FC(F)(F)Oc1ccc2nc(C(F)(F)F)[nH]c2c1`: the melting point fell in the range of 158 to 160 °C.

`Cc1ccc(S(=O)(=O)NC(C)P(=O)(Oc2ccccc2)c2ccccc2)cc1` (stereo not given) returned a melting point of 178 to 181 °C.

As to `CC(=O)OCOC(=O)COC(=C1C(=O)N(C(N)=O)c2cc(Cl)c(F)cc21)c1cccs1`, the melting point lay within 176 to 177 °C.

`O=C(NCCCCCCC(=O)c1ncco1)c1cc2ccccc2[nH]1` registered a melting point of 153 to 156 °C.

Consider `Cc1cc(-c2cc(C(=O)O)c(=O)n(CC(C)C)n2)ccc1F`, for which the melting point lay in the range of 129 to 132 °C.

With `Cc1ccccc1NC(=N)NC1CCCCC1`, the melting point is 145 to 146 °C.

Compound `CC(NC(=O)Cc1cc(F)cc(F)c1)C(=O)NC1C(=O)NCc2cc(Cc3ccccc3)ccc21` (stereo not given) returned a melting point of 159 to 166 °C.

Compound `O=c1ccc(S(=O)(=O)c2oc3ccccc3c2O)n[nH]1` registered a melting point of 186 to 189 °C.

On to `CCOC(=O)C=Cc1ccc(Cl)c(Cl)c1`, for which the melting point was 56 °C.

With `CN(C)c1cncc(C#N)c1`, the melting point was determined as 104 °C.

`OCC1OC(n2c(Br)nc3c(NCc4ccccc4)ncnc32)C(O)C1O` (stereo not given) had a melting point of 96 to 98 °C.

The compound `COc1cccc2c1CN(c1c(F)cc3c(=O)c(C(=O)O)cn4c3c1OCC4C)C2` (stereo not given) came in with a melting point of 262 to 264 °C.

`O=C1c2ccccc2C(=O)N1C1CCC(c2cc(F)c(Br)cc2F)C1` (stereo not given): the melting point fell in the range of 44 to 47 °C.

In turn, `Cc1cc(C(O)(C(F)(F)F)C(F)(F)F)cc(C)c1OCC(N)=O` yielded a melting point of 180 to 182 °C.

Consider `CC(=O)OCC1OC(n2cc(C)c(NO)nc2=O)CC1F` (stereo not given), for which the melting point is 180 to 181 °C.

As to `CC(C)c1nsc(N2CCN(C(=O)Nc3noc4ccccc34)CC2)n1`, the melting point fell in the range of 178 to 179 °C.

`CCCCCCCCCCCCN(N)C(=O)NC`: the melting point was 73 to 75 °C.

In the case of `C=C1C[C@@H]2[C@H](CC[C@]3(C)C(=O)CC[C@@H]23)[C@@]2(C)CCC(=O)C=C12`, the melting point lay in the range of 155 to 160 °C.

`O=C(O)c1ccc(NCc2cc(Br)ccc2CCc2ccccc2)cc1` came in with a melting point of 132 to 134 °C.

The compound `COc1ccc(-c2cc3ccc(C#N)cc3o2)cc1` gave a melting point of 141 to 142 °C.

In the case of `CC1CNc2c(cccc2S(=O)(=O)N[C@@H](CCCNC(=N)N)C(=O)N2CC[C@@H](C)C[C@@H]2C(=O)O)C1` (stereo not given in full), the melting point fell in the range of 188 to 191 °C.

`CCCCCCC(=O)OCCOC(=O)NC1(C(=O)O)CC1` gave a melting point of 113 °C.

In turn, `O=C(NC1CCCCC1)NS(=O)(=O)c1ccc2c(c1)CCN(C(=O)N1CCOCC1)CC2` returned a melting point of 190 to 191 °C.

Compound `COc1cc(C(=O)[C@H](C)NC(=O)C(F)(F)F)c(OC)cc1Br` returned a melting point of 144 to 145 °C.

For `C=CC(=O)OCC(CCCCCCCCCCCOc1ccc(-c2cccc(F)c2F)cc1)COC(=O)C=C`, the melting point fell in the range of 33.4 to 34.4 °C.

The compound `COc1ccc(-c2ccc(C(C)=NOCCO)cc2)cc1` came in with a melting point of 164 to 166 °C.

Compound `CS(=O)(=O)c1ccc(-c2cnn(-c3ccc(F)c(Cl)c3)c(=O)c2Cc2ccccc2)cc1` returned a melting point of 164 to 166 °C.

`CC(C)(C)NC(=O)c1nn(-c2ccc(Cl)cc2)c2c1[C@@H]1CC[C@H]2C1`: the melting point was 159 to 162 °C.

Consider `CCCCCCC(=O)c1ccc(O)c(Cl)c1Cl`, for which the melting point was 82 to 84 °C.

For `N#Cc1c(O)c2sccc2[nH]c1=O`, the melting point was > 300 °C.

`COc1cc(N2CCCCC2)c(Cl)cc1CC(=O)O` registered a melting point of 120 to 122 °C.

Take `CC(C)[C@H](N)C(=O)OCc1nc2c(N)nc3ccccc3c2n1CC(C)(C)O`: the melting point is 190 to 192 °C.

The compound `CC(C)COc1ccc(-c2nc3c(C(=O)O)cccc3[nH]2)cc1C#N` returned a melting point of 299 to 302 °C.
